The test system of test [1] is tumor patients with RET fusion and mutation. Conditions: phase I, cited from earlier work.
The target of a further test is wild-type RET kinase (Homo sapiens, UniProt P07949). The test can be described thus: Kinase activity assay against wild-type RET at ATP Km (33P-ATP, filter-binding). Conditions: ATP Km concentration, 10 concentrations. It is filed as biochemical. As for the experimental part:
[…]. The biological activity screening of the compounds will be determined repeatedly at 10 concentrations.
Each sample was prepared into a solution with a concentration of 10 mM.
The test compound was dissolved in 100% dimethyl sulfoxide to a specific concentration. Integra Viaflo Assist was used to assist DMSO for (continuous) dilution.
Adding kinase into the newly prepared basic reaction buffer:
Adding any desired cofactors to the substrate solution;
Adding wild-type RET kinase into the substrate solution and gently mixing;
Using Acoustic technology (Echo 550; nanoliter range) to feed the compounds in 100% of dimethyl sulfoxide into the kinase reaction mixture and incubated at room temperature for 20 minutes.
Adding 33P-ATP (specific activity 10 Ci/1) into the reaction mixture to start the reaction.
Incubated at room temperature for 2 hours;
Radioactivity was detected by filter-binding method;
Kinase activity data was expressed as the percentage of remaining kinase activity in the test sample compared to the vehicle (dimethyl sulfoxide) reaction. Prism (GRAPHPAD software) was used to obtain IC50 value and curve-fitting.

Read-outs that look alike come from different tables or passages of the source.

wild-type RET kinase, sequence (P07949 29-1114): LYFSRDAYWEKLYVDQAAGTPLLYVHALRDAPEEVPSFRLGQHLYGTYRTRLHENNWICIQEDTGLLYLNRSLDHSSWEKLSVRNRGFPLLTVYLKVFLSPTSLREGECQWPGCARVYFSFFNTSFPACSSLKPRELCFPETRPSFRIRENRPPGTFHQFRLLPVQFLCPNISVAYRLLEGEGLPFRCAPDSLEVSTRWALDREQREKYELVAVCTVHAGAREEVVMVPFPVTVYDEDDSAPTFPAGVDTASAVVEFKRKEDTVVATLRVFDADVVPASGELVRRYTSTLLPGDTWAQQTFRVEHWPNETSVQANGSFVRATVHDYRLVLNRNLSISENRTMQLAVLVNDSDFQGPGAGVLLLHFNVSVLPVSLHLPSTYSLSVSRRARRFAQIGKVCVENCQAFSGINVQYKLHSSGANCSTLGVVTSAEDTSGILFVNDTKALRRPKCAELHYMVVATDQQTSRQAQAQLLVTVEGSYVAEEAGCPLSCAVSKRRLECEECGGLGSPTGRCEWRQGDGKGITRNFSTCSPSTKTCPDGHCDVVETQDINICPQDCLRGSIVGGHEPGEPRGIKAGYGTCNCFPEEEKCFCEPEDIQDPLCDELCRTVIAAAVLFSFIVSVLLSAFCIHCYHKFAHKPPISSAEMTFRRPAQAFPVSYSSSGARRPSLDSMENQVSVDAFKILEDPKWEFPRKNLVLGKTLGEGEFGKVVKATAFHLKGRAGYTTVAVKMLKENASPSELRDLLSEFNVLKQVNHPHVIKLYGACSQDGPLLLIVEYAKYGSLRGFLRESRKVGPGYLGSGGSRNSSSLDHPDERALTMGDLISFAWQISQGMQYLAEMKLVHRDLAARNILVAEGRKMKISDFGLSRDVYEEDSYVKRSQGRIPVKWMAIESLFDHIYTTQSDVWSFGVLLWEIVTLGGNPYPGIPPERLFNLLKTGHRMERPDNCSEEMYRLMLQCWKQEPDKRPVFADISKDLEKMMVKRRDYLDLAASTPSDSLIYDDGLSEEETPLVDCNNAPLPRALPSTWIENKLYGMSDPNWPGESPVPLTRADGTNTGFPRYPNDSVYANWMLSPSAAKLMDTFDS

Take `CO[C@]1(C(=O)N[C@@H](C)c2ccc(-n3cc(F)cn3)nc2)CC[C@H](c2nc(C)cc(Nc3cc(C)[nH]n3)n2)CC1` [BLU-667]: the values for the ORR in test [1] (patients with medullary thyroid carcinoma) and in test [1] (patients with non-small cell lung cancer) were 40% and 50%, respectively. The “overall remission rate (ORR)” value in test [1] (tumor patients with RET fusion and mutation) was 45%. With `COc1ccc(CN2CCCC(n3cc(-c4cc(-c5cnn(C)c5)cn5ncc(C#N)c45)cn3)C2)cn1` (stereo not drawn) [Compound C2], on wild-type RET kinase, the IC50 was 3.52 nM. As for `COc1ccc(CN2CCC(n3ccc(-c4cc(-c5cnn(C)c5)cn5ncc(C#N)c45)cc3=O)CC2)cn1` [Compound C8], the IC50 on wild-type RET kinase came to 58 nM. Consider `COc1ccc(CN2CCC(n3ccc(-c4cc(-c5cnn(C)c5)cn5ncc(C#N)c45)cc3=O)C2)cn1` (stereo not drawn) [Compound C5], for which the 50% inhibitory concentration (IC50) at wild-type RET kinase is 40.7 nM. Molecule `COc1ccc(CN2CCCC(n3ccc(-c4cc(-c5cnn(C)c5)cn5ncc(C#N)c45)cc3=O)C2)cn1` (stereo not drawn) [Compound C7] registered a 50% inhibitory concentration (IC50) on wild-type RET kinase of 27.3 nM. Same read-out and setting: the value for `COc1ccc(CN2CCC(n3cc(-c4cc(-c5cnn(C)c5)cn5ncc(C#N)c45)cn3)C2)cn1` (stereo not drawn) [Compound C1] was 1.56 nM; that for `COc1ccc(CN2C3CC2CN(c2ccc(-c4cc(OCC(C)(C)O)cc5nccc(C#N)c45)cn2)C3)cn1` [Compound C3] was 226 nM.

The values are drawn from patent US20230095530A1, “COMPOUND USED AS RET KINASE INHIBITOR AND APPLICATION THEREOF” (TYK Medicines, Inc., priority 2019, published 2023).
